Patent US4481201A, “Pharmaceutical composition containing N,N^3 -di-(β-bromopropionyl)-N^1,N^2 -dispirotripiperazinium dichloride” (Vsesojuzny Nauchno-Issledovatelsky Khimoko-Farmasevtichesky …, priority 1981, dated 1984)
Where two headings read alike, the source gives them in different places.

Tests used:
leukemia L1210 = test: Life span of mice with transplantable leukemia L1210; assay type: in vivo, inbred mice
Source text: (§1) The antitumor activity has been studied on white rats weighing 110-130 g, as well as on white noninbred and inbred mice weighing 17-21 g with ligated tumors. The treatment is started 5-7 days transplanting of solid tumors and the following day after the transplanting of leukotic strains. Use has been made of the following transplantable strains of the tumors:
(§2) (3) inbred mice: leukemia La, leukemia L1210 and P-388.
(§3) The activity of compounds relative to leukosis has been assessed by the life span (It) of treated animals as compared to the control ones. It --index of suppression of leukosis development is calculated by the formula: [formula]

[1] = Withdrawal of radioactivity from the rats' organism; assay type: in vivo; design: concentration or dose not given beside the values; settings: C^14-labeled
Source text: In the case of administration of the preparation according to the present invention labeled with C^14, a higher level of radioactivity in blood is observed than in the case of prospidin labeled with C^14. A higher rate of accumulation of the preparation according to the present invention as compared to prospidin is observed in larynx, windpipe, bronchi, bone marrow, tumor and thyroid gland. The preparation according to the present invention labeled with C^14 is withdrawn from the organism within 24 hours after the intravenous administration mainly with urine, while C^14 --labeled prospidin is retained in the organism for a longer period.

acute leucosis = test: Clinical study on patients; assay type: in vivo
Source text: The preparation according to the present invention has been studied in two clinics on patients with different localization of the tumoral process; the tests have justified its low toxicity.
54 patients were under observation including 20 patients with malignant blood diseases. In all the patients both before and after the course of treatment with the medicated compound according to the present invention the clinical state has been assessed (general state, presence of increased lymphatic nodes, liver and spleen). There were also carried out the analyses of peripheral blood, bone marrow, urine, as well as biochemical blood characteristics and electrocardiographic data (ECG).

Solubility = assay type: physicochemical
Protocol: The compounds of the general formula (I), wherein X represents Cl^- (compound 1), Br^- (compound 2) are well-soluble in an isotonic solution of sodium chloride and they are administered intraperitoneally. The doses of the compounds have been calculated in mg per kg of the animal bodyweight.
To a mixture of 3 g of N^1,N^2 -dispirotripiperazinium dichloride, 1.5 g of lithium hydroxide, 1 ml of water and 10 ml of ether a solution of 5.2 g of β-bromopropionic acid chlorid in 5 ml of ether is added under vigorous stirring and at a temperature of 5° to 10° C. The reaction mass is stirred for 2 hours at the temperature of 15° C. The residue is filtered off, dissolved in 10 ml of water; the resulting aqueous solution is poured in 100 ml of methanol.

transplantable leukemia = test: Activity relative to leukoses of inbred mice (overall); assay type: in vivo
Source text: (2) activity of the compounds relative to leukoses of inbred mice;
as §1, §2, §3

[2] = mice with transplantable leukemia L1210
[3] = 24 hours after intravenous administration

SMILES: O=C(CCBr)N1CC[N+]2(CC1)CC[N+]1(CCN(C(=O)CCBr)CC1)CC2 [Compound 1, N,N^3 -di-(β-bromopropionyl)-N^1,N^2 -dispirotripiperazinium dichloride]
- extension of life span as compared to the control, factor (leukemia L1210; leukemia L1210): 1.03
- It, % index of suppression of leukosis development (leukemia L1210; [2]): 38%
- Life span (leukemia L1210; [2]): 10.6 ± 2 days
- Withdrawal of radioactivity, Feces [1, 3]: 1.6%
- Withdrawal of radioactivity, Total [1, 3]: 99.9%
- Withdrawal of radioactivity, Urina [1, 3]: 98.3%
- Withdrawal of radioactivity, Urina ([1]; within 3 hours after intravenous administration): 80.7%
- patients with positive effect (acute leucosis; intravenously, doses of from 100 to 1,000 mg): 45%
- tolerability in patients (acute leucosis; intravenously, single doses 500 to 600 mg daily (up to 10 g for 20 days)): well tolerated
- patients with complete clinicohematological remission (acute leucosis; patients with acute lympho- and mielo-regional leukemiae, intravenously 100 to 1,000 mg): 20%
- solubility in an isotonic solution of sodium chloride (Solubility): well-soluble
- solubility in organic solvents (Solubility): substantially insoluble
- solubility in water (Solubility): well soluble
- effect on transplantable leukemia in mice (transplantable leukemia): clearly pronounced antileukotic effect
- effect on transplantable leukemia in mice (transplantable leukemia; listed as preparation according to the present invention): pronounced antileucotic effect
